Counter-ions that a name gives are not always drawn.
Tested on: clot lysis (fibrinolysis) in diluted human citrated plasma, tPA-induced
Assay: Plasma-based clot lysis assay (5%)
Assay type: biochemical
Details: human citrated platelet-poor plasma 5%, fibrinogen 3 μM, CaCl2 10 mM, tPA 0.2 nM, 37° C., OD at 405 nm
Procedure: B-2. Plasma-based Clot Lysis Assay (5%)
The clot-lysis test system configures the kinetics of clot formation and degradation in vitro and allows quantifying modulation of the process by selected test compounds.
The test compounds were dissolved in 1% acetic acid and further complemented with an equal volume of DMSO. The resulting stock solutions were serially diluted in 0.5% acetic acid/50% DMSO. 1 μL aliquots of these solutions were placed into 384 well microplates (Greiner, black, transparent bottom), followed by 30 μL of diluted human citrated plasma (platelet-poor, final concentration: 5%; supplemented with fibrinogen, final concentration: 3 μM; dilution buffer: 20 mM HEPES, 150 mM NaCl, 0.01% Brij (pH 7)). The reactions were started by addition of 20 μL of CaCl2 (final concentration: 10 mM), and tPA (tissue plasminogen activator, final concentration: 0.2 nM) in dilution buffer, followed by an additional volume of 20 μL dilution buffer for improved mixing. The reactions were incubated at 37° C. […] IC50 values were determined by comparing the resulting time courses with the time course of a blank control reaction.

| IC50 | Compound |
| --- | --- |
| 33 nM | CCCN(CC)C(=O)c1cnn2c(C3CCNCC3)cc(=O)[nH]c12 [Example 96, N-ethyl-5-oxo-7-(piperidin-4-yl)-N-propyl-4,5-dihydropyrazolo[1,5-a]pyrimidine-3-carboxamide hydrochloride] |
| 75 nM | Cc1nn2c(C3CCNCC3)cc(=O)[nH]c2c1C(=O)N(C)C [Example 319, N,N,2-trimethyl-5-oxo-7-(piperidin-4-yl)-4,5-dihydropyrazolo[1,5-a]pyrimidine-3-carboxamide hydrochloride] |
| 33 nM | Cc1nn2c(C3CCNCC3)cc(=O)[nH]c2c1C(=O)N1CCc2ccccc21 [Example 412, 3-(2,3-dihydro-1H-indol-1-ylcarbonyl)-2-methyl-7-(piperidin-4-yl) pyrazolo[1,5-a] pyrimidin-5(4H)-one hydrochloride] |
| 42 nM | Cc1nn2c(C3CCNCC3)cc(=O)[nH]c2c1C(=O)N1CCCCC1 [Example 399, 2-methyl-7-(piperidin-4-yl)-3-(piperidin-1-ylcarbonyl) pyrazolo[1,5-a] pyrimidin-5(4H)-one hydrochloride] |
| 28 nM | O=C(OCC(F)F)c1cnn2c(C3CCNCC3)cc(=O)[nH]c12 [Example 353, 2,2-difluoroethyl 5-oxo-7-(piperidin-4-yl)-4,5-dihydropyrazolo[1,5-a]pyrimidine-3-carboxylate hydrochloride] |
| 34 nM | CC1(C)CCN(C(=O)c2cnn3c(C4CCNCC4)cc(=O)[nH]c23)C1 [Example 462, 3-[(3,3-dimethylpyrrolidin-1-yl)carbonyl]-7-(piperidin-4-yl)pyrazolo[1,5-a]pyrimidin-5 (4H)-one hydrochloride] |
| 32 nM | CC(C)Cc1nc(-c2cnn3c(C4CCNCC4)cc(=O)[nH]c23)no1 [Example 378, 3-(5-Isobutyl-1,2,4-oxadiazol-3-yl)-7-(piperidin-4-yl)pyrazolo[1,5-a]pyrimidin-5(4H)-one hydrochloride] |
| 38 nM | O=c1cc(C2CCNCC2)n2ncc(-c3nc(-c4ccc(F)cc4F)no3)c2[nH]1 [Example 158, 3-[3-(2,4-difluorophenyl)-1,2,4-oxadiazol-5-yl]-7-(piperidin-4-yl)pyrazolo[1,5-a]pyrimidin-5(4H)-one hydrochloride] |
| 56 nM | Cc1nn2c(C3CCNCC3)cc(=O)[nH]c2c1-c1nnc(-c2ccccc2F)o1 [Example 445, 3-[5-(2-fluorophenyl)-1,3,4-oxadiazol-2-yl]-2-methyl-7-(piperidin-4-yl)pyrazolo[1,5-a]pyrimidin-5(4H)-one hydrochloride] |
| 35 nM | O=c1cc(C2CCNCC2)n2ncc(-c3nc(-c4ccc(C(F)(F)F)nc4)no3)c2[nH]1 [Example 188, 7-(piperidin-4-yl)-3-{3-[6-(trifluoromethyl)pyridin-3-yl]-1,2,4-oxadiazol-5-yl}pyrazolo[1,5-a]pyrimidin-5(4H)-one hydrochloride] |
| 28 nM | O=c1cc(C2CCNCC2)n2ncc(-c3nc(C(O)c4ccccc4)no3)c2[nH]1 (centres unmarked) [Example 238, 3-{3-[hydroxy(phenyl)methyl]-1,2,4-oxadiazol-5-yl}-7-(piperidin-4-yl)pyrazolo[1,5-a]pyrimidin-5(4H)-one hydrochloride] |
| 30 nM | Cc1nn2c(C3CCNCC3)cc(=O)[nH]c2c1C(=O)N1CCC(F)(F)C1 [Example 429, 3-[(3,3-difluoro-pyrrolidin-1-yl)carbonyl]-2-methyl-7-(piperidin-4-yl) pyrazolo[1,5-a] pyrimidin-5(4H)-one hydrochloride] |
| 12 nM | CCCc1noc(-c2cnn3c(C4CCNCC4)cc(=O)[nH]c23)n1 [Example 34, 7-(Piperidin-4-yl)-3-(3-propyl-1,2,4-oxadiazol-5-yl)pyrazolo[1,5-a]pyrimidin-5(4H)-one hydrochloride] |
| 27 nM | O=c1cc(C2CCNCC2)n2ncc(-c3nc(-c4ccc(OC(F)(F)F)cc4)no3)c2[nH]1 [Example 115, 7-(Piperidin-4-yl)-3-{3-[4-(trifluoromethoxy)phenyl]-1,2,4-oxadiazol-5-yl}pyrazolo[1,5-a]pyrimidin-5(4H)-one hydrochloride] |
| 28 nM | Cc1ccccc1N(C)C(=O)c1c(C)nn2c(C3CCNCC3)cc(=O)[nH]c12 [Example 431, N,2-dimethyl-N-(2-methyl-phenyl)-5-oxo-7-(piperidin-4-yl)-4,5-dihydro-pyrazolo[1,5-a] pyrimidine-3-carboxamide hydrochloride] |
| 16 nM | CCc1noc(-c2c(C)nn3c(C4CCNCC4)cc(=O)[nH]c23)n1 [Example 300, 3-(3-ethyl-1,2,4-oxadiazol-5-yl)-2-methyl-7-(piperidin-4-yl)pyrazolo[1,5-a]pyrimidin-5(4H)-one hydrochloride] |
| 23 nM | O=c1cc(C2CCNCC2)n2ncc(-c3nc(-c4ccccc4F)no3)c2[nH]1 [Example 159, 3-[3-(2-fluorophenyl)-1,2,4-oxadiazol-5-yl]-7-(piperidin-4-yl)pyrazolo[1,5-a]pyrimidin-5(4H)-one hydrochloride] |

More lines, now with the values behind:

| Compound | IC50 |
| --- | --- |
| CC(C)(C)C[C@@H]1C[C@H](c2cc(=O)[nH]c3c(-c4nc(-c5ccccc5F)no4)cnn23)CCN1 [Example 349, 7-[(2S,4R)-2-(2,2-dimethylpropyl)piperidin-4-yl]-3-[3-(2-fluorophenyl)-1,2,4-oxadiazol-5-yl]pyrazolo[1,5-a]pyrimidin-5(4H)-one hydrochloride] | 21 nM |
| COCc1nn2c(C3CCNCC3)cc(=O)[nH]c2c1-c1ccc(OC)cc1 [Example 3, 2-(Methoxymethyl)-3-(4-methoxyphenyl)-7-(piperidin-4-yl)pyrazolo[1,5-a]pyrimidin-5 (4H)-one hydrochloride] | 33 nM |
| O=c1cc(C2CCNCC2)n2nc(C3CC3)cc2[nH]1 [Example 26, 2-Cyclopropyl-7-(piperidin-4-yl)pyrazolo[1,5-a]pyrimidin-5(4H)-one hydrochloride] | 310 nM |
| O=c1cc(C2CCNCC2)n2ncc(-c3noc(C4CC(F)(F)C4)n3)c2[nH]1 [Example 392, 3-(5-(3,3-difluorocyclobutyl)-1,2,4-oxadiazol-3-yl)-7-(piperidin-4-yl)pyrazolo[1,5-a]pyrimidin-5(4H)-one hydrochloride] | 27 nM |
| O=c1cc(C2CCNCC2)n2ncc(-c3nc(-c4cccc(C(F)(F)F)n4)no3)c2[nH]1 [Example 146, 7-(Piperidin-4-yl)-3-{3-[6-(trifluoromethyl)pyridin-2-yl]-1,2,4-oxadiazol-5-yl}pyrazolo[1,5-a]pyrimidin-5(4H)-one hydrochloride] | 35 nM |
| O=c1cc(C2CCNCC2)n2ncc(-c3cccc(-c4ccc(C(F)(F)F)cc4)c3)c2[nH]1 [Example 162, 7-(piperidin-4-yl)-3-[4′-(trifluoromethyl)biphenyl-3-yl]pyrazolo[1,5-a]pyrimidin-5(4H)-one hydrochloride] | 140 nM |
| O=c1cc(C2CCNCC2)n2ncc(-c3nc(-c4ccccc4OC(F)F)cs3)c2[nH]1 [Example 337, 3-{4-[2-(difluoromethoxy)phenyl]-1,3-thiazol-2-yl}-7-(piperidin-4-yl)pyrazolo[1,5-a]pyrimidin-5(4H)-one hydrochloride] | 30 nM |
| CC(C)S(=O)(=O)Cc1noc(-c2cnn3c(C4CCNCC4)cc(=O)[nH]c23)n1 [Example 201, 3-{3-[(isopropylsulfonyl)methyl]-1,2,4-oxadiazol-5-yl}-7-(piperidin-4-yl)pyrazolo[1,5-a]pyrimidin-5(4H)-one hydrochloride] | 34 nM |
| Cc1nn2c(C3CCNCC3)cc(=O)[nH]c2c1C(=O)NC1CCC1 [Example 422, N-cyclobutyl-2-methyl-5-oxo-7-(piperidin-4-yl)-4,5-dihydro-pyrazolo[1,5-a] pyrimidine-3-carboxamide hydrochloride] | 23 nM |
| O=c1cc(C2CCNCC2)n2ncc(-c3nc(-c4ccc(C(F)(F)F)cc4C(F)(F)F)no3)c2[nH]1 [Example 152, 3-{3-[2,4-Bis(trifluoromethyl)phenyl]-1,2,4-oxadiazol-5-yl}-7-(piperidin-4-yl)pyrazolo[1,5-a]pyrimidin-5(4H)-one hydrochloride] | 43 nM |
| O=c1cc(C2CCNCC2)n2ncc(-c3nnc(C4(c5ccc(Cl)cc5)CC4)o3)c2[nH]1 [Example 278, 3-{5-[1-(4-chlorophenyl)cyclopropyl]-1,3,4-oxadiazol-2-yl}-7-(piperidin-4-yl)pyrazolo[1,5-a]pyrimidin-5(4H)-one hydrochloride] | 19 nM |
| O=c1cc(C2CCNCC2)n2ncc(-c3nnc(-c4ccco4)o3)c2[nH]1 [Example 178, 3-[5-(2-furyl)-1,3,4-oxadiazol-2-yl]-7-(piperidin-4-yl)pyrazolo[1,5-a]pyrimidin-5 (4H)-one hydrochloride] | 34 nM |
| CC(C)(C)CNC(=O)c1cnn2c(C3CCNCC3)cc(=O)[nH]c12 [Example 93, N-(2,2-dimethylpropyl)-5-oxo-7-(piperidin-4-yl)-4,5-dihydropyrazolo[1,5-a]pyrimidine-3-carboxamide hydrochloride] | 22 nM |
| COc1cccc(-c2cnn3c(C4CCNCC4)cc(=O)[nH]c23)c1 [Example 60, 3-(3-Methoxyphenyl)-7-(piperidin-4-yl)pyrazolo[1,5-a]pyrimidin-5(4H)-one hydrochloride] | 13 nM |
| C[C@H]1C[C@H](c2cc(=O)[nH]c3c(C#N)cnn23)CCN1 [Example 65, (−)-trans-7-(2-Methylpiperidin-4-yl)-5-oxo-4,5-dihydropyrazolo[1,5-a]pyrimidine-3-carbonitrile trifluoroacetate] | 12 nM |
